Key:
[1] = tested on: native cockroach ryanodine receptors (in embryonic neuronal cells); test: Calcium release assay, calcium imaging of embryonic cockroach neuronal cells (Fluo-4); format: cell-based, Periplaneta americana; conditions: for Calcium Release (P. americana): Table 6, result in words
Source text: Embryonic neuronal cultures of the American cockroach Periplaneta americana were established, with minor modifications, following the method of Beadle and Lees (1988) (in Cell Culture Approaches to Invertebrate Neuroscience, Academic Press, New York, pp 123-127). Briefly, 26-27-day old oothecae were collected, surface-sterilized and cut open along a line one-third of the distance below the dorsal midline. The heads were removed and placed in Schneider's Drosophila medium (Invitrogen Life Technologies™, Carlsbad, Calif.). Using fine forceps 40 brains were individually removed and placed in a small glass vial containing 700 μl of ‘5+4’ medium (‘5+4’ medium contained 5 parts Schneider's Drosophila medium plus 4 parts roach Basal Medium Eagle, with Earle's salts (BME, Sigma™, St. Louis, Mo.). Roach BME (with Earle's salts) contained 5 parts Hepes (1 M), 1 part penicillin/streptomycin and 44 parts BME (with Earle's salts). ‘5+4’ medium was made fresh and sterile filtered (0.2 μm filter) just prior to use). The brains were dissociated by sequential trituration as follows: 1) brains were passed through a standard Pasteur pipette 10 times; 2) the resulting tissue suspension was passed an additional 5 times through a Pasteur pipet with tip flamed to about half of its original diameter; 3) a final 5 passes were performed using a Pasteur pipet with tip flamed to slightly less than half of its original diameter. A repeat pipettor was used to dispense a 5 μl volume of the resulting suspension into the center of each well of a 96-well, glass-bottom plate previously coated with poly-L-lysine (0.2 mg/ml solution). Cells attached to the bottom of the wells during a 50 min incubation at 27-29° C. 150 ul of a 1:1 mixture of Leibovitz's L-15 medium and Yunker's modified Grace's medium was added, and plates were maintained in a humid incubator at 27-29° C. until use. After cells were allowed to attach wells were filled with a 1:1 mixture of Leibovitz's L-15 medium and Yunker's modified Grace's medium (Leibovitz's L-15 and Grace's medium were obtained from Invitrogen Life Technologies™, Carlsbad, Calif. and Yunker's modified Grace's medium was made with Grace's medium modified by addition of 5 mg L-methionine, 10 mg L-alanine, 182 mg MgCl2.6H20, 1 g Albumin Fraction V, 7 ml Fetal bovine serum, 10 ml Chick embryo extract, 2 ml Penicillin/Streptomycin, and 2 mg 20-hydroxyecdysone (prepared in ethanol prior to addition) to a final volume of 100 ml and sterile filtered (0.2 μm filter)). Cells were maintained in a high humidity incubator at 29° C. until testing.
The calcium imaging and acquisition protocols using roach neuronal cells is as follows:
Cells were rinsed in standard physiological saline having the following composition (mM): NaCl 190; CaCl2 9; KCl 3.1; probenicid 1; Tris buffer 10; pH 7.2. Cells were then bathed in standard physiological saline containing the calcium sensitive fluoroprobe Fluo-4 AM (2 μM) and Pluronic F127 (0.002%) for 45 min. Cells were then rinsed in standard physiological saline for at least 15 min prior to testing. Within the hour prior to testing, standard physiological saline was replaced with standard physiological saline containing the organic cation channel blocker pimozide (10 μM), to inhibit influx of external calcium through voltage-gated calcium channels. The 96-well plate was placed on a Prior™ motorized stage mounted onto a Nikon Diaphot microscope and imaged using a 20× Fluor objective (NA 0.75). Individual wells from the 96-well plate were sequentially excited with light at 495 nm, and the emitted fluorescence at 530 nm was detected using a Hamamatsu ORCA ER digital camera with 2 pixel binning (image size 672×512 pixels).
Acquisition control, image processing and image analysis were conducted using Universal Imaging Corporation's MetaMorph™ imaging software (Universal Imaging, West Chester, Pa.). A series of 3 “control” images were acquired for each well. […]

[2] = target: T1, recombinant Drosophila melanogaster ryanodine receptors (expressed in Sf9 cells) (Drosophila melanogaster, UniProt Q24498); format: cell-based; conditions: for Calcium Release Threshold (nM) D. melanogaster: receptor expressed in Sf9 cells; for Calcium Release (D. melanogaster): Table 6, result in words, receptor transiently or stably expressed in Sf9 cells
T1 construct: expressed in transfected cells
Protocol: The Spodoptera frugiperda cell line Sf9 used for transfection studies, was maintained in Sf-900 II SFM medium (Invitrogen Life Technologies™, Carlsbad, Calif.) in T-75 flasks incubated at 27° C. It is understood that those skilled in the art might choose alternative cell types such as the Spodoptera frugiperda cell line Sf21 or the Drosophila cell line S2. For the purpose of general handling and propagation, cells were suspended through scraping or agitation and a volume of cell suspension was added to each well of a poly-L-lysine coated 96-well, glass-bottom plate so as to provide 70-80% confluence. Cells were maintained in an incubator at 27° C. until testing.
SF900-II media was used to bring the final volume in the dish to 2 ml and the cells were incubated at 27 degrees C. for 21 h. Following the incubation the media was aspirated from the dish and replaced with 1 ml of SF900-II media pre-warmed to 27 degrees C.
The transient transfection was carried out following an InsectSelect BSD System manual (Invitrogen Life Technologies™, Carlsbad, Calif.). […] The transfection was accomplished by adding the transfection solution drop-wise to the dish and incubating 4 h at room temperature with gentle rocking. […]
(§1) Several drops of a suspension of recombinant Spodoptera frugiperda cell line, Sf9, transiently expressing insect ryanodine receptors were placed on a poly-L-lysine-coated coverslip and allowed to attach. Cells were then rinsed in physiological saline having the following composition (mM): NaCl 130; KCl 5.4; MgCl2 1.2; CaCl2 1.0; NaHCO3 4.2; NaH2P04 7.3; Glucose 10; Sucrose 63; MES 20; pH 6.3. Cells were then bathed in physiological saline containing the calcium sensitive fluoroprobe, Fura-2 AM (2 μM), and Pluronic F127 (0.002%) for 30 min. Cells were rinsed in standard physiological saline for at least 15 min prior to testing. Testing was conducted in standard physiological saline, as the cell lines are devoid of functional voltage-gated calcium channels.
Cell-attached coverslips were placed in a sealed chamber with physiological saline continuously perfused across the cells using a peristaltic pump. Test compounds solubilized in physiological saline were applied by switching the perfusate source.
(§2) For studies involving the stable recombinant Spodoptera frugiperda cell line, Sf9, (other cell lines could also be used such as Sf21, S2, etc) expressing an insect ryanodine receptor from Drosophila melanogaster, or Heliothis virescens (alternatively receptors from other species such as Myzus persicae, Peregrinus maidis, Aphis gossypii, etc) were grown in T75 (or other appropriate sized) flasks in supplemented Grace's insect medium. Cells were maintained in an incubator at 22° C. until testing. Cells were suspension-loaded with the calcium sensitive fluoroprobe, Fura-2 AM (1-2 μM) and Pluronic F127 (0.002%) in culture medium for 30 minutes under agitation. Cells were then centrifuged and the pellet resuspended in physiological saline having the following composition (mM): NaCl 130; KCl 5.4; MgCl2 1.2; CaCl2 1.0; NaHCO3 4.2; NaH2P04 7.3; Glucose 10; Sucrose 63; MES 20; pH 6.3 at approximately 150,000-200,000 cells per well (96-well plate). After a 30 minute equilibration period the cell plate was tested using a Molecular Devices' FlexStation™ system with dual wavelength excitation (340 and 380 nm) and fluorescence emission measured at 510 nm. Test and control samples were added using integrated fluidics and the intracellular calcium monitored over a 2 minute period.

[3] = target: native cockroach ryanodine receptors (roach femoral muscle membranes) (Periplaneta americana, UniProt A0ABQ8T696); test: Radioligand displacement ([3H]-GN analog Cpd 1) on roach femoral muscle membranes; format: binding; conditions: for IC50: displacement of [3H]-Cpd 1, roach muscle membranes, 60 min at 32° C., read-out: Displacement IC50 (nM) P. americana; for Radioligand Displacement (P. americana): Table 6, result in words
Protocol: Binding to Roach Femoral Muscle Membranes:
Assays were carried out in triplicate.

[4] = tested on: control cells without DNA / wild-type Sf9 cells; test: Calcium response in control Sf9 cells (without DNA, lipid only, non-transfected, wild type); format: cell-based, Spodoptera frugiperda; conditions: Compound 16 10 and 100 nM
Source text: as §1
Imaging studies were conducted using a Nikon Diaphot microscope with a 40× oil immersion objective (NA 1.3) Image acquisition and processing was performed using the MetaFluor™ imaging system from Universal Imaging Corporation (West Chester, Pa.) Calcium calibration was carried out using the Grynkiewicz equation with a dissociation constant (Kd) of 145 nM for Fura-2 (Grynkiewicz et al., 1985). Cell-attached coverslips were placed in a sealed chamber with physiological saline continuously perfused across the cells using a peristaltic pump. Test compounds solubilized in physiological saline were applied by switching the perfusate source.
as §2

Sequence of native cockroach ryanodine receptors (roach femoral muscle membranes) (A0ABQ8T696 entry or part of it): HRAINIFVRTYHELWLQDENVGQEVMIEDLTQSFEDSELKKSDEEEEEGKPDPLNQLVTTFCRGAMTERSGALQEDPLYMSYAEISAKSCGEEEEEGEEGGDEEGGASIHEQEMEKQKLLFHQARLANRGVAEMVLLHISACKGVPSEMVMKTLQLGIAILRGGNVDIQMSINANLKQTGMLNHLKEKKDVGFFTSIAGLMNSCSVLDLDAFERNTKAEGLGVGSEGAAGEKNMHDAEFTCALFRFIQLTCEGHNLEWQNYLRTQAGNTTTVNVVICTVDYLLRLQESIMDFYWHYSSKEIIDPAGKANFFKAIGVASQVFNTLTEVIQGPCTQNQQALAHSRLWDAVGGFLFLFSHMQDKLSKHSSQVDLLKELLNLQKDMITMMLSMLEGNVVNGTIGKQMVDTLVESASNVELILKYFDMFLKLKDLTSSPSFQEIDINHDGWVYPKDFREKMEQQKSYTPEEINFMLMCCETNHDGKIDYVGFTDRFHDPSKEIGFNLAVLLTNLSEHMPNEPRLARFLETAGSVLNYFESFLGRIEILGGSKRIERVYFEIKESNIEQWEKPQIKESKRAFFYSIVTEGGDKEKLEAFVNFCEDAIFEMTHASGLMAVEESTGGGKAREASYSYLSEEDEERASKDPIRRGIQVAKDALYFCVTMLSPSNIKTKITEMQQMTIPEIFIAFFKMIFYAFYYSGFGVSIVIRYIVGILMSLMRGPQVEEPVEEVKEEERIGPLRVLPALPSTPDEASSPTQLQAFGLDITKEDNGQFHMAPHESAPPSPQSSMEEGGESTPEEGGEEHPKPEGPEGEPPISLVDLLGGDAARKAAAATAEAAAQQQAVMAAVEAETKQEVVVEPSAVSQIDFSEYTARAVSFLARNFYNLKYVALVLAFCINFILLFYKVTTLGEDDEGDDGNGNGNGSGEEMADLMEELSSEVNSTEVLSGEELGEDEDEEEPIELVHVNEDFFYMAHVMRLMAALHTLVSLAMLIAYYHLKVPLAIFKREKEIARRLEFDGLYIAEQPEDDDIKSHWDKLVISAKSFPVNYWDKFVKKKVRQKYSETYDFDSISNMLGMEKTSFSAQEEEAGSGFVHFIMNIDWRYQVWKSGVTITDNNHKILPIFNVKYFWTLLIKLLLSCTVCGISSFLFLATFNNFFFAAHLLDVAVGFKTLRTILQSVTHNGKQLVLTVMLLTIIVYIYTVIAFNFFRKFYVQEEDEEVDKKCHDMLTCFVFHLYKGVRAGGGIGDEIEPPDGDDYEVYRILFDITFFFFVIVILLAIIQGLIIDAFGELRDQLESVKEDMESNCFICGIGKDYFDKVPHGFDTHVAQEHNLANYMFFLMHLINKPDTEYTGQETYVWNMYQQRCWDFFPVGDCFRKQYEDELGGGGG

Compound | IC50 [3] | Calcium Release Threshold (nM) P. americana [1] | other results
Oc1c(Br)cc2[nH]c3cnccc3c2c1Br [Bromoeudistomin D, reference compound] | – | – | Calcium Release (P. americana) [1]: Agonist
[3H]c1cc(C)c(NC(=O)c2cc(C(F)(F)F)nn2-c2ccccc2F)c(C(=O)NC(C)C)c1 [Cpd 1, 1-(2-Fluorophenyl)-N-[2-methyl-4-tritio-6-[[(1-methylethyl)amino]carbonyl]phenyl]-3-(trifluoromethyl)-1H-pyrazole-5-carboxamide] | < 300 nM | – | Calcium Release Threshold (nM) D. melanogaster [2]: <300 nM
Cc1cccc(C(=O)NC(C)C)c1NC(=O)c1cc(C(F)(F)F)nn1-c1ccccc1Cl [Cpd 2] | < 300 nM | <300 nM | Calcium Release Threshold (nM) D. melanogaster [2]: <300 nM
Cc1cc(Br)cc(C(=O)NCC(C)C)c1NC(=O)c1cc(C(F)(F)F)nn1-c1ccccc1Cl [Cpd 3] | < 300 nM | – | –
CNC(=O)c1cccc(C)c1NC(=O)c1cc(C(F)(F)F)nn1-c1ncccc1Cl [Cpd 6] | < 300 nM | <300 nM | –
Cc1cccc(C(=O)NC(C)C)c1NC(=O)c1cc(Br)nn1-c1ncccc1Cl [Cpd 7] | < 300 nM | <300 nM | –
Cc1cccc(C(=O)NC(C)C)c1NC(=O)c1cc(Cl)nn1-c1ncccc1Cl [Cpd 8] | < 300 nM | <300 nM | –
Cc1cc(Br)cc(C(=O)NC(C)C)c1NC(=O)c1cc(C(F)(F)F)nn1-c1ncccc1Cl [Cpd 9] | < 300 nM | <300 nM | –
Cc1cc(Cl)cc(C(=O)NC(C)C)c1NC(=O)c1cc(C(F)(F)F)nn1-c1ncccc1Cl [Cpd 10] | < 300 nM | <300 nM | –
CNC(=O)c1cc(Cl)cc(C)c1NC(=O)c1cc(C(F)(F)F)nn1-c1ncccc1Cl [Cpd 11] | < 300 nM | <300 nM | Calcium Release Threshold (nM) D. melanogaster [2]: <300 nM
Cc1cc(Br)cc(C(=O)NC(C)C)c1NC(=O)c1cc(Br)nn1-c1ncccc1Cl [Cpd 12] | < 300 nM | <300 nM | –
Cc1cc(Cl)cc(C(=O)NC(C)C)c1NC(=O)c1cc(Br)nn1-c1ncccc1Cl [Cpd 13] | < 300 nM | – | –
CNC(=O)c1cc(Br)cc(C)c1NC(=O)c1cc(C(F)(F)F)nn1-c1ncccc1Cl [Cpd 15] | < 300 nM | <300 nM | –
Cc1cc(Cl)cc(C(=O)NC(C)C)c1NC(=O)c1cc(Cl)nn1-c1ncccc1Cl [Cpd 16] | < 300 nM | <300 nM | calcium response ([2]; Compound 16 10 and 100 nM, Sf9 transiently expressing D. melanogaster ryanodine receptor, 96 hr post-transfection, FIG. 3): calcium responses elicited; Calcium Release Threshold (nM) D. melanogaster [2]: <300 nM; calcium response in control cells without DNA [4]: No significant calcium responses
CNC(=O)c1cc(Cl)cc(C)c1NC(=O)c1cc(Cl)nn1-c1ncccc1Cl [Cpd 17] | < 300 nM | <300 nM | –
CCNC(=O)c1cc(Br)cc(Br)c1NC(=O)c1cc(C(F)(F)F)nn1-c1ncccc1Cl [Cpd 18] | < 300 nM | – | –
COc1cccc2c1C(=O)c1c(O)c3c(c(O)c1C2=O)C[C@@](O)(C(=O)CO)C[C@@H]3O[C@H]1C[C@H](N)[C@H](O)[C@H](C)O1.Cl [Doxorubicin, reference compound] | – | – | Calcium Release (P. americana) [1]: Inactive
N.N.N.N.N.N.N.N.N.N.N.N.N.N.[Cl-].[Cl-].[Cl-].[Cl-].[Cl-].[Cl-].[O-2].[O-2].[Ru+3].[Ru+3].[Ru+4] [Ruthenium Red, reference compound] | – | – | Calcium Release (D. melanogaster) [2]: Antagonist; Radioligand Displacement (P. americana) [3]: Displacer; Calcium Release (P. americana) [1]: Inactive
Ryanodine [reference compound] | – | – | Calcium Release (D. melanogaster) [2]: Antagonist; Radioligand Displacement (P. americana) [3]: Inactive; Calcium Release (P. americana) [1]: Antagonist

— patent US7655395B2, “Isolation and use of ryanodine receptors” (E.I. du Pont de Nemours and Company, priority 2002, dated 2010)
